From the supplement of paper PMC11061612

Tests used:
[1] = test system: NCI-H82 (Small Cell Lung Carcinoma); assay: combination Emax (second highest fraction inhibited in the dose matrix, 72 h); higher = more inhibition; extreme values may be limits of the assay
Outline: (§1)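 After 24 hours at 37°C and 5% CO2 in 1536-well plates, cells in DMEM/F12 or RPMI plus 10% FBS received two-drug dose matrices for 72 hours. Viability came from CellTiter-Glo 2.0 luminescence and was scaled as inhibition, anchored at 0 by vehicle wells and at 1 by blank wells. Combination Emax is taken as the second-highest inhibition in the matrix, and Bliss excess as the observed combination effect less EA + EB − EA·EB, with EA and EB the single-agent effects.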

[2] = test system: HT-1376 (Bladder Carcinoma); assay: as above
Outline: as §1

HOS (Osteosarcoma) = assay: as above
Outline: as §1

[3] = test system: SK-ES-1 (Ewing's Sarcoma); assay: as above
Outline: as §1

[4] = test system: CaR-1 (Colorectal Carcinoma); assay: as above
Outline: as §1

[5] = test system: KYSE-520 (Esophageal Squamous Cell Carcinoma); assay: as above
Outline: as §1

[6] = test system: ME-1 (Acute Myeloid Leukemia); assay: Bliss excess, mean over the matrix (fraction); higher = more synergy
Outline: as §1

[7] = test system: DEL (T-Cell Non-Hodgkin's Lymphoma); assay: as above
Outline: as §1

NB10 (Neuroblastoma) = assay: as above
Outline: as §1

[8] = test system: RC-K8 (B-Cell Non-Hodgkin's Lymphoma); assay: as above
Outline: as §1

[9] = test system: DoTc2-4510 (Cervical Carcinoma); assay: as above
Outline: as §1

[10] = test system: Hs-578-T (Breast Carcinoma); assay: as above
Outline: as §1

[11] = test system: OVCA420 (Ovarian Carcinoma); assay: as above
Outline: as §1

T98G (Glioblastoma) = assay: as above
Outline: as §1

NOS-1 (Osteosarcoma) = assay: as above
Outline: as §1

[12] = test system: RO82-W-1 (Thyroid Gland Carcinoma); assay: as above
Outline: as §1

KELLY (Neuroblastoma) = assay: as above
Outline: as §1

[13] = test system: LU-135 (Small Cell Lung Carcinoma); assay: as above
Outline: as §1

[14] = test system: LB831-BLC (Bladder Carcinoma); assay: as above
Outline: as §1

[15] = test system: KURAMOCHI (Ovarian Carcinoma); assay: as above
Outline: as §1
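For Bliss excess, mean over the matrix in this document: after 72 h of two-drug dosing.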

Row | Structure (SMILES) | combination Emax [1] | combination Emax [2] | combination Emax (HOS (Osteosarcoma)) | combination Emax [3] | combination Emax [4] | combination Emax [5] | Bliss excess [6] | Bliss excess [7] | Bliss excess (NB10 (Neuroblastoma)) | Bliss excess [8] | Bliss excess [9] | Bliss excess [10] | Bliss excess [11] | Bliss excess (T98G (Glioblastoma)) | Bliss excess (NOS-1 (Osteosarcoma)) | Bliss excess [12] | Bliss excess (KELLY (Neuroblastoma)) | Bliss excess [13] | Bliss excess [14] | Bliss excess [15]
1 | CC1(C)CCC(CN2CCN(c3ccc(C(=O)NS(=O)(=O)c4ccc(NCC5CCOCC5)c([N+](=O)[O-])c4)c(Oc4cnc5[nH]ccc5c4)c3)CC2)=C(c2ccc(Cl)cc2)C1 [Venetoclax] + C1CN(CCC1(C(=O)N[C@@H](CCO)C2=CC=C(C=C2)Cl)N)C3=NC=NC4=C3C=CN4 [Capivasertib] (first compound max 1 µM, 7x7, partner max 3 µM) | 0.3 | 0.11 | 0.281 | 0.469 | 0.264 | 0.467 | 0 | -0.0589 | -0.0808 | -0.0173 | -0.0185 | -0.0255 | -0.0357 | -0.0382 | -0.0157 | -0.0312 | 0.0017 | -0.0429 | -0.0272 | -0.0538
2 | CC1(C)CCC(CN2CCN(c3ccc(C(=O)NS(=O)(=O)c4ccc(NCC5CCOCC5)c([N+](=O)[O-])c4)c(Oc4cnc5[nH]ccc5c4)c3)CC2)=C(c2ccc(Cl)cc2)C1 [Venetoclax] + C=CCn1c(=O)c2cnc(Nc3ccc(N4CCN(C)CC4)cc3)nc2n1-c1cccc(C(C)(C)O)n1 [AZD1775] (first compound max 1 µM, partner max 1 µM) | 0.917 | 0.338 | 0.406 | 0.987 | 0.246 | 0.595 | 0.0289 | -0.027 | -0.0113 | -0.0082 | 0.0075 | -0.0347 | -0.0079 | 0.0648 | 0.0193 | -0.0757 | 0.0593 | -0.0538 | -0.0004 | 0.0572
3 | CC1(C)CCC(CN2CCN(c3ccc(C(=O)NS(=O)(=O)c4ccc(NCC5CCOCC5)c([N+](=O)[O-])c4)c(Oc4cnc5[nH]ccc5c4)c3)CC2)=C(c2ccc(Cl)cc2)C1 [Venetoclax] + CCN(CCO)CCCOc1ccc2c(Nc3cc(CC(=O)Nc4cccc(F)c4)[nH]n3)ncnc2c1 [AZD2811] (first compound max 1 µM, 7x7, partner max 1 µM) | 0.457 | 0.183 | 0.214 | 1 | 0.282 | 0.304 | -0.0118 | -0.0345 | -0.0539 | 0.0214 | -0.0189 | -0.0451 | -0.0114 | -0.0169 | -0.0156 | -0.0604 | 0.0038 | -0.0099 | -0.0073 | -0.0237
4 | CC1(C)CCC(CN2CCN(c3ccc(C(=O)NS(=O)(=O)c4ccc(NCC5CCOCC5)c([N+](=O)[O-])c4)c(Oc4cnc5[nH]ccc5c4)c3)CC2)=C(c2ccc(Cl)cc2)C1 [Venetoclax] + CN(C)CCCOc1ccc(-c2ccc3ncc4c(c3c2)n(C2CCOCC2)c(=O)n4C)cn1 [AZD0156] (first compound max 1 µM, 7x7, partner max 1 µM) | 0.343 | 0.189 | 0.152 | 0.374 | 0.145 | 0.181 | -0.0045 | 0.0011 | 0.0418 | 0.0282 | -0.0148 | -0.0426 | -0.02 | -0.0509 | -0.0358 | -0.0586 | 0.0158 | -0.0012 | -0.061 | -0.0039
5 | CC1(C)CCC(CN2CCN(c3ccc(C(=O)NS(=O)(=O)c4ccc(NCC5CCOCC5)c([N+](=O)[O-])c4)c(Oc4cnc5[nH]ccc5c4)c3)CC2)=C(c2ccc(Cl)cc2)C1 [Venetoclax] + COc1cc(Nc2ncc3c(n2)-c2ccc(Cl)cc2C(c2c(F)cccc2OC)=NC3)ccc1C(=O)O [Alisertib] (first compound max 1 µM, 7x7, partner max 10 µM) | 0.73 | 0.246 | 0.248 | 1 | 0.401 | 0.493 | 0.0669 | 0.0094 | -0.0052 | 0.024 | -0.0367 | 0.107 | -0.025 | -0.0205 | -0.0231 | -0.0658 | 0.0343 | -0.0236 | -0.0354 | -0.0992
6 | CC1(C)CCC(CN2CCN(c3ccc(C(=O)NS(=O)(=O)c4ccc(NCC5CCOCC5)c([N+](=O)[O-])c4)c(Oc4cnc5[nH]ccc5c4)c3)CC2)=C(c2ccc(Cl)cc2)C1 [Venetoclax] + C[C@@H]1COCCN1C2=NC(=NC(=C2)C3(CC3)[S@](=N)(=O)C)C4=C5C=CNC5=NC=C4 [AZD6738] (first compound max 1 µM, 7x7, partner max 10 µM) | 0.86 | 0.432 | 0.642 | 0.914 | 0.484 | 0.575 | 0.0345 | 0.01 | 0.0159 | -0.0294 | -0.0174 | -0.122 | 0.0047 | -0.061 | -0.057 | -0.0504 | 0.0209 | 0.0538 | 0.0045 | -0.0451
7 | CC1(C)CCC(CN2CCN(c3ccc(C(=O)NS(=O)(=O)c4ccc(NCC5CCOCC5)c([N+](=O)[O-])c4)c(Oc4cnc5[nH]ccc5c4)c3)CC2)=C(c2ccc(Cl)cc2)C1 [Venetoclax] + C[C@@H](Nc1cc(F)cc(F)c1)c1cc(C(=O)N(C)C)cc2c(=O)cc(N3CCOCC3)oc12 [AZD8186] (first compound max 1 µM, 7x7, partner max 3 µM) | 0.141 | 0.0567 | 0.0842 | 0.64 | 0.109 | 0.247 | 0.0239 | 0.0055 | -0.0084 | 0.018 | -0.0078 | -0.0314 | -0.0285 | -0.0064 | 0.018 | -0.0455 | 0.0068 | 0.121 | -0.0465 | -0.0467
8 | CC1(C)CCC(CN2CCN(c3ccc(C(=O)NS(=O)(=O)c4ccc(NCC5CCOCC5)c([N+](=O)[O-])c4)c(Oc4cnc5[nH]ccc5c4)c3)CC2)=C(c2ccc(Cl)cc2)C1 [Venetoclax] + Cc1cc2ncnn2cc1Nc1ncc2c(n1)n(C1CCOCC1)c(=O)n2C [AZD7648] (first compound max 1 µM, 7x7, partner max 10 µM) | 0.221 | 0.193 | 0.204 | 0.465 | 0.175 | 0.34 | 0.0319 | 0.0365 | 0.0053 | 0.0156 | -0.0413 | -0.0162 | -0.0089 | -0.0693 | -0.0504 | -0.0346 | -0.0064 | -0.087 | -0.0497 | -0.0605
9 | CC1(C)CCC(CN2CCN(c3ccc(C(=O)NS(=O)(=O)c4ccc(NCC5CCOCC5)c([N+](=O)[O-])c4)c(Oc4cnc5[nH]ccc5c4)c3)CC2)=C(c2ccc(Cl)cc2)C1 [Venetoclax] + Cn1cnc2c(F)c(Nc3ccc(Br)cc3Cl)c(C(=O)NOCCO)cc21 [Selumetinib] (first compound max 1 µM, 7x7, partner max 3 µM) | 0.161 | 0.163 | 0.089 | 0.285 | 0.103 | 0.299 | 0.055 | 0.0117 | 0.0021 | -0.0112 | -0.0414 | 0.0045 | -0.045 | -0.0186 | -0.0082 | -0.0552 | 0.009 | -0.0545 | -0.0239 | -0.0333
